system: adult F. hepatica; test: in vitro test on adult F. hepatica (viability scale); assay type: cell-based; settings: Fasciola hepatica, 72 h, read-out: Effective in vitro concentration
Description: Representative compounds of formula (I) were tested in vitro against F. hepatica as follows. Adult F. hepatica (fluke) were collected from infected bovine livers obtained from a local abattoir (Basel, Switzerland). The worms were quickly washed with 0.9% (w/v) NaCl and placed in 6 or 12-well plates (Costar). Culture medium in each well contained RPMI 1640 (Gibco) at 37° C., which was supplemented with antibiotics (50 μg/ml streptomycin and 50 IU/ml penicillin; Gibco) and 80 μg/ml of a haemin solution. The haemin solution was prepared as follows: 5 mg haemin was dissolved in 1 ml of 0.1M aqueous solution of NaOH, and 3.95 ml of PBS (pH=7.4) and 0.05 ml of 1M HCl were added to adjust the pH to 7.1-7.4 (Keiser and Morson, 2008). Cultures were kept at 37° C. in an atmosphere of 5% CO2. To monitor the temporal effects of test compounds in vitro, 3 flukes were incubated for 72 h in the presence of 50 or 100 μg/ml of each test compound. At 24, 48, and 72 h, worms were examined using a dissecting microscope. For the adult worms, a viability scale ranging from 3 (normal movements) to 0 (death; no movement observed for two min using a microscope) was used.
Table 1 lists representative compounds of formula (I) of the present invention and their effective in vitro concentrations against F. hepatica. All compounds were tested in vitro on the adult stage of F. hepatica as described above. Each data point refers to at least two independent experiments having at least three worms per concentration.

SMILES | minimal effective concentration [µg/mL]
N#Cc1ccc(-c2cc3cc(C(F)(F)F)[nH]c3cc2Cl)c(Cl)c1 [Compound 355, 3-chloro-4-[6-chloro-2-(trifluoromethyl)-1H-indol-5-yl]benzonitrile] | > 2.5

same assay, conditions: Fasciola hepatica; adult stage of F. hepatica, incubated up to 72 h, viability scale 3 to 0; at least two independent experiments, at least three worms per concentration; read-out: Effective in vitro concentration

SMILES | minimal effective concentration [µg/mL]
CCc1cc2cc(-c3ccc(C(F)(F)F)cc3Cl)c(Cl)cc2[nH]1 [Compound 338, 6-chloro-5-[2-chloro-4-(trifluoromethyl)phenyl]-2-ethyl-1H-indole] | < 10
Fc1ccc(-c2cc3cc(C(F)(F)F)[nH]c3cc2Cl)c(Cl)c1 [Compound 356, 6-chloro-5-(2-chloro-4-fluorophenyl)-2-(trifluoromethyl)-1H-indole] | < 10
FC(F)(F)c1ccc(-c2cc3cc(C(F)(F)C(F)(F)C(F)(F)F)[nH]c3cc2Cl)c(Cl)c1 [Compound 341, 6-chloro-5-[2-chloro-4-(trifluoromethyl)phenyl]-2-(heptafluoropropyl)-1H-indole] | > 10
FC(F)(F)c1ccc(-c2cc3cc(C(F)(F)C(F)(F)F)[nH]c3cc2Cl)c(Cl)c1 [Compound 340, 6-chloro-5-[2-chloro-4-(trifluoromethyl)phenyl]-2-(pentafluoroethyl)-1H-indole] | < 10
CN(C)Cc1ccccc1-c1cc2cc(C(F)(F)F)[nH]c2cc1Cl.Cl [Compound 360-0A, ([2-[6-Chloro-2-(trifluoromethyl)-1H-indol-5-yl]phenyl]methyl)dimethylamine hydrochloride] | > 2.5
FC(F)(F)c1cc2cc(-c3ccncc3)c(Cl)cc2[nH]1 [Compound 349, 6-chloro-5-(pyridin-4-yl)-2-(trifluoromethyl)-1H-indole] | ≤ 10
FC(F)(F)c1cc2cc(Oc3ccc(Cl)cc3)c(Cl)cc2[nH]1 [Compound 350, 6-chloro-5-(4-chlorophenoxy)-2-(trifluoromethyl)-1H-indole] | ≤ 10
Cc1cc2cc(-c3ccc(C(F)(F)F)cc3Cl)c(Cl)cc2[nH]1 [Compound 337, 6-chloro-5-[2-chloro-4-(trifluoromethyl)phenyl]-2-methyl-1H-indole] | < 10
FC(F)(F)c1ccc(-c2ccc3cc(C(F)(F)F)[nH]c3c2)c(Cl)c1 [Compound 334, 6-[2-chloro-4-(trifluoromethyl)phenyl]-2-(trifluoromethyl)-1H-indole] | < 10
Cl.FC(F)(F)c1cc2cc(Oc3ccncc3)c(Cl)cc2[nH]1 [Compound 362-0A, 6-chloro-5-(pyridin-4-yloxy)-2-(trifluoromethyl)-1H-indole hydrochloride] | > 2.5
FC(F)(F)c1cc2cc(-c3ccc(Cl)cc3C(F)(F)F)c(Cl)cc2[nH]1 [Compound 342, 6-chloro-5-[4-chloro-2-(trifluoromethyl)phenyl]-2-(trifluoromethyl)-1H-indole] | < 10
FC(F)(F)c1cc2cc(-c3ccc(Cl)cc3)c(Cl)cc2[nH]1 [Compound 343, 6-chloro-5-(4-chlorophenyl)-2-(trifluoromethyl)-1H-indole] | < 10
FC(F)(F)c1cc2cc(-c3ccncc3Cl)c(Cl)cc2[nH]1 [Compound 361, 6-chloro-5-(3-chloropyridin-4-yl)-2-(trifluoromethyl)-1H-indole] | < 10
CN(C)Cc1ccccc1-c1cc2cc(C(F)(F)F)[nH]c2cc1Cl [Compound 360, ([2-[6-Chloro-2-(trifluoromethyl)-1H-indol-5-yl]phenyl]methyl)dimethylamine] | > 2.5
FC(F)(F)c1cc2cc(-c3ccc(Cl)cc3Cl)c(Cl)cc2[nH]1 [Compound 357, 6-Chloro-5-(2,4-dichlorophenyl)-2-(trifluoromethyl)-1H-indole] | < 10
FC(F)(F)c1cc2cc(Oc3ccccc3Cl)c(Cl)cc2[nH]1 [Compound 351, 6-chloro-5-(2-chlorophenoxy)-2-(trifluoromethyl)-1H-indole] | < 10
O=C(O)c1ccccc1-c1cc2cc(C(F)(F)F)[nH]c2cc1Cl [Compound 358, 2-[6-Chloro-2-(trifluoromethyl)-1H-indol-5-yl]benzoic acid] | > 2.5
FC(F)(F)c1cc2cc(-c3cccc(Cl)c3)c(Cl)cc2[nH]1 [Compound 347, 6-chloro-5-(3-chlorophenyl)-2-(trifluoromethyl)-1H-indole] | ≤ 10
FC(F)(F)c1ccc(-c2cc3cc(C(F)(F)F)[nH]c3cc2Cl)cc1 [Compound 345, 6-chloro-2-(trifluoromethyl)-5-[4-(trifluoromethyl)phenyl]-1H-indole] | < 10
CCCc1cc2cc(-c3ccc(C(F)(F)F)cc3Cl)c(Cl)cc2[nH]1 [Compound 339, 6-chloro-5-[2-chloro-4-(trifluoromethyl)phenyl]-2-propyl-1H-indole] | < 10
N#Cc1ccccc1-c1cc2cc(C(F)(F)F)[nH]c2cc1Cl [Compound 359, 2-[6-Chloro-2-(trifluoromethyl)-1H-indol-5-yl]benzonitrile] | > 2.5
Cl.FC(F)(F)c1cc2cc(-c3ccncc3)c(Cl)cc2[nH]1 [Compound 354, 6-chloro-5-(pyridin-4-yl)-2-(trifluoromethyl)-1H-indole hydrochloride] | > 2.5
Cl.FC(F)(F)c1cc2cc(-c3ccncc3Cl)c(Cl)cc2[nH]1 [Compound 361-0A, 6-chloro-5-(3-chloropyridin-4-yl)-2-(trifluoromethyl)-1H-indole hydrochloride] | < 10
FC(F)(F)c1cc2cc(-c3ccccc3Cl)c(Cl)cc2[nH]1 [Compound 346, 6-chloro-5-(2-chlorophenyl)-2-(trifluoromethyl)-1H-indole] | < 10
FC(F)(F)c1ccc(-c2cc3cc(C(F)(F)F)[nH]c3cc2Cl)c(Cl)c1 [Compound 336, 6-chloro-5-[2-chloro-4-(trifluoromethyl)phenyl]-2-(trifluoromethyl)-1H-indole] | < 10
Fc1ccc(-c2cc3cc(C(F)(F)F)[nH]c3cc2Cl)cc1 [Compound 344, 6-chloro-5-(4-fluorophenyl)-2-(trifluoromethyl)-1H-indole] | < 10
FC(F)(F)c1ccc(Oc2cc3cc(C(F)(F)F)[nH]c3cc2Cl)cc1 [Compound 352, 6-chloro-2-(trifluoromethyl)-5-[4-(trifluoromethyl)phenoxy]-1H-indole] | > 10
FC(F)(F)c1ccc(-c2ccc3[nH]c(C(F)(F)F)cc3c2)c(Cl)c1 [Compound 332, 5-[2-chloro-4-(trifluoromethyl)phenyl]-2-(trifluoromethyl)-1H-indole] | < 10
FC(F)(F)c1cc2cc(-c3ccc(Cl)c(Cl)c3)c(Cl)cc2[nH]1 [Compound 348, 6-chloro-5-(3,4-dichlorophenyl)-2-(trifluoromethyl)-1H-indole] | < 10

system: liver fluke newly-excysted juveniles (NEJs); test: fluke motility assay, digital image-based, newly-excysted juveniles (NEJs); assay type: cell-based, Fasciola hepatica; settings: 18 h, final concentrations 10 μM-1 nM
Description: Further testing employed a fluke motility assay. Compounds 332, 336 and 351 were screened for activity against liver fluke newly-excysted juveniles (NEJs) in a digital image-based motility assay, based on measurement of the rate of change in worm length (μm/min) during peristaltic motility. Newly excised worms were immediately placed into a solution of drug in RPMI (final concentrations 10 μM-1 nM), alongside untreated and vehicle controls, and triclabendazole/triclabendazole sulfoxide (i.e., TCBZ/TCBZ-SO) at matching concentrations, for a period of 18 h. Each treatment group consisted of 15-20 NEJs. […] Each data point represents mean length change (μm/min) in an individual worm during a five minute recording period. Horizontal lines represent data set means. ****, p<0.0001; ***, p<0.001; **, p<0.01; *, p<0.05.

SMILES | inhibition of motility compared with TCBZ and TCBZ-SO
FC(F)(F)c1cc2cc(Oc3ccccc3Cl)c(Cl)cc2[nH]1 [Compound 351, 6-chloro-5-(2-chlorophenoxy)-2-(trifluoromethyl)-1H-indole] | more potent inhibition of motility than either TCBZ
FC(F)(F)c1ccc(-c2cc3cc(C(F)(F)F)[nH]c3cc2Cl)c(Cl)c1 [Compound 336, 6-chloro-5-[2-chloro-4-(trifluoromethyl)phenyl]-2-(trifluoromethyl)-1H-indole] | more potent inhibition of motility than either TCBZ
FC(F)(F)c1ccc(-c2ccc3[nH]c(C(F)(F)F)cc3c2)c(Cl)c1 [Compound 332, 5-[2-chloro-4-(trifluoromethyl)phenyl]-2-(trifluoromethyl)-1H-indole] | more potent inhibition of motility than either TCBZ

same assay, conditions: 18 h, tested 10 μM-1 nM

SMILES | concentration effective on motility (effective only at) [µM]
C[S+]([O-])c1nc2cc(Oc3cccc(Cl)c3Cl)c(Cl)cc2[nH]1 (centres unmarked) [TCBZ-SO, triclabendazole sulfoxide, reference compound] | 10
CSc1nc2cc(Cl)c(Oc3cccc(Cl)c3Cl)cc2[nH]1 [TCBZ, triclabendazole, reference compound] | 10

same assay, conditions: 18 h in drug in RPMI, rate of change in worm length (μm/min)

SMILES | concentration that completely abolished motility [µM] | concentration that significantly impacted motility [nM]
FC(F)(F)c1cc2cc(Oc3ccccc3Cl)c(Cl)cc2[nH]1 [Compound 351, 6-chloro-5-(2-chlorophenoxy)-2-(trifluoromethyl)-1H-indole] | 1 | –
FC(F)(F)c1ccc(-c2cc3cc(C(F)(F)F)[nH]c3cc2Cl)c(Cl)c1 [Compound 336, 6-chloro-5-[2-chloro-4-(trifluoromethyl)phenyl]-2-(trifluoromethyl)-1H-indole] | – | 100
FC(F)(F)c1ccc(-c2ccc3[nH]c(C(F)(F)F)cc3c2)c(Cl)c1 [Compound 332, 5-[2-chloro-4-(trifluoromethyl)phenyl]-2-(trifluoromethyl)-1H-indole] | 1 | –
